Source: patent US4123518A, “Insecticidal phosphate ester-based solid composition with depot gas action” (priority 1974, dated 1978)

Assays:
[1] = Acute oral toxicity, male rats; settings: rat, in vivo
male rats = experiment: Acute inhalation toxicity, male rats (4 hours' exposure); assay type: in vivo
[2] = system: flies of the species Musca domestica; experiment: Percentage of flies lying on their backs after one hour, shaped pieces in a 40 m^3 room (Example 9); assay type: in vivo; settings: shaped piece of Example 5 (Thio-DDVP) or 5a (DDVP)
Method: One shaped piece produced according to Example 5 and one shaped piece produced according to Example 5a were each pushed into a net-like quiver and suspended from the ceiling in the center of identical rooms of 40 m^3 cubic capacity. Immediately thereafter (0), and after 4, 8 and 12 weeks, 200 flies of the species Musca domestica were in each case exposed in the rooms. […] In each case, the percentage of animals which had fallen on their backs was determined 1 hour after exposing the flies.

Musca domestica = experiment: Aerosol test (knock-down of 50% of the animals, LT50); assay type: in vivo; settings: comparison experiment, Example 1
Method: The following examples explain the invention in more detail, with "parts" denoting parts by weight.
Test animals: Musca domestica
To produce a suitable preparation of active compound, the active compound was mixed, at a range of concentrations, with the stated solvent.
A wire cage which contained about 25 test animals was suspended in the centre of a gas-tight glass chamber of size 1 m^3. After the chamber had been closed again, 2 ml of the preparation of active compound were atomised in the chamber. The condition of the test animals was constantly checked from outside, through the glass walls, and the time required for a knock-down effect on 50% of the animals was determined.
The active compounds, amounts used and time after which 50% of the animals were lying on their backs (LT50) can be seen from the table which follows: […]

warm-blooded animals = experiment: Toxicity to warm-blooded animals compared to DDVP; assay type: in vivo
[3] = age of the shaped pieces 0 weeks
[4] = age of the shaped pieces 4 weeks
[5] = age of the shaped pieces 8 weeks
[6] = age of the shaped pieces 12 weeks

Row | SMILES | LD50 [1] [mg/kg] | LC50 male rats, acute inhalation toxicity (male rats) [mg/m^3] | percentage of animals lying on their backs after one hour [2, 3] [percentage] | percentage of animals lying on their backs after one hour [2, 4] [percentage] | percentage of animals lying on their backs after one hour [2, 5] [percentage] | percentage of animals lying on their backs after one hour [2, 6] [percentage] | insecticidal action compared to DDVP (Musca domestica) | tolerance of the maximum possible concentration, acute inhalation toxicity (male rats; 477 mg/m^3, maximum possible in the experiment) | toxicity to warm-blooded animals compared to DDVP (warm-blooded animals)
1 | COP(=O)(OC)OC=C(Cl)Cl [DDVP, dimethyl-2,2-dichlorovinyl phosphate, reference compound] | 62 | 340 | 80 | 70 | 60 | 20 | – | – | –
2 | COP(=S)(OC)OC=C(Cl)Cl [Thio-DDVP, dimethyl-2,2-dichlorovinyl thiophosphate] | 773 | > 477 | 100 | 95 | 90 | 50 | poorer insecticidal action | tolerated without symptoms | lower toxicity to warm-blooded animals
